Results published in publication PMC4032265 (PLoS ONE, 2014).
Where two headings read alike, the source gives them in different places.

Legend:
[1] = target: β2 adrenergic receptor (Homo sapiens, UniProt P07550); assay: PDSP radioligand binding, β2; conditions: read-out: % inhibition at 10 µM
[2] = target: T1, M1 muscarinic acetylcholine receptor (Homo sapiens, UniProt P11229); assay: PDSP radioligand binding, M1; conditions: read-out: % inhibition at 10 µM
T1 sequence (P11229 1-460): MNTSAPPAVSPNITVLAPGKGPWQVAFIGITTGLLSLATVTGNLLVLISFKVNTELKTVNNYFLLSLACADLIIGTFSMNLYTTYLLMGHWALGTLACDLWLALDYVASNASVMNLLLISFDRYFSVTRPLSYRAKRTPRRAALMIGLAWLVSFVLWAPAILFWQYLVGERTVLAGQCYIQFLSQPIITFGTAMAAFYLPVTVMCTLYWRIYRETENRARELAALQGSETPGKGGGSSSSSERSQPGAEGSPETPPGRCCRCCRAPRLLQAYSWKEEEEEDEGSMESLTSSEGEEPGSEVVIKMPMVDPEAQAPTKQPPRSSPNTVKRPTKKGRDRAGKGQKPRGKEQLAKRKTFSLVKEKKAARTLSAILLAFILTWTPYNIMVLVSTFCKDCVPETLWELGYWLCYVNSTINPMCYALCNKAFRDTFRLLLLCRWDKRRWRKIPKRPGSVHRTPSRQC

[3] = target: 5HT2A serotonergic receptor (Homo sapiens, UniProt P28223); assay: PDSP radioligand binding, 5HT2A; conditions: read-out: % inhibition at 10 µM
Sequence of 5HT2A serotonergic receptor (P28223 whole entry): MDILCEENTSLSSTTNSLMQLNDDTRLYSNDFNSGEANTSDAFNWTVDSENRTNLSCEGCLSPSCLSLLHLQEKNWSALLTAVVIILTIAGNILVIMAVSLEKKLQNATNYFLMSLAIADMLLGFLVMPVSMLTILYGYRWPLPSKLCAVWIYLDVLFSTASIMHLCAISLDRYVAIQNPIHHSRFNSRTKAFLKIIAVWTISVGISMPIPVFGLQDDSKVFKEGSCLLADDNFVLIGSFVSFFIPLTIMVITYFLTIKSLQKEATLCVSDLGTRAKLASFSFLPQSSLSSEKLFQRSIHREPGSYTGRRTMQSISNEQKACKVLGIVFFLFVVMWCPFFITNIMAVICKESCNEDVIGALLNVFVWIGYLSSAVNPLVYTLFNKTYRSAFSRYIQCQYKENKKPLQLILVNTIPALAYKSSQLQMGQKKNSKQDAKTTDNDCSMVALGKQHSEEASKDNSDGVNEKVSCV

[4] = target: D5 dopaminergic receptor (Homo sapiens, UniProt P21918); assay: PDSP radioligand binding, D5; conditions: read-out: % inhibition at 10 µM
Sequence of D5 dopaminergic receptor (P21918 whole entry): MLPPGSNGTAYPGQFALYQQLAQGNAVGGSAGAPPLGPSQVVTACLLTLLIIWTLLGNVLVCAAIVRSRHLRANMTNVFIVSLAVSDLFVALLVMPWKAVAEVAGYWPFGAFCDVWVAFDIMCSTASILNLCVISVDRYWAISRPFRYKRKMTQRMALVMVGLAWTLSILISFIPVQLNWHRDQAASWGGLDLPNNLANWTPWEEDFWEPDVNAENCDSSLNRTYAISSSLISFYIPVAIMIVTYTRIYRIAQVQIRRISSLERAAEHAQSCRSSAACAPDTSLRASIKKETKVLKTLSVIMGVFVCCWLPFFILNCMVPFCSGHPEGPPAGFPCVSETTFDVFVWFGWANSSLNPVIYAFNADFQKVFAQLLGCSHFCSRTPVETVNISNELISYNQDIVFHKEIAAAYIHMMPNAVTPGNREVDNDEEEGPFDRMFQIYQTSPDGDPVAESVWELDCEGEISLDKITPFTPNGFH

[5] = target: T2, α1B adrenergic receptor (Homo sapiens, UniProt P35368); assay: PDSP radioligand binding, α1B; conditions: read-out: % inhibition at 10 µM
T2 sequence (P35368 1-520): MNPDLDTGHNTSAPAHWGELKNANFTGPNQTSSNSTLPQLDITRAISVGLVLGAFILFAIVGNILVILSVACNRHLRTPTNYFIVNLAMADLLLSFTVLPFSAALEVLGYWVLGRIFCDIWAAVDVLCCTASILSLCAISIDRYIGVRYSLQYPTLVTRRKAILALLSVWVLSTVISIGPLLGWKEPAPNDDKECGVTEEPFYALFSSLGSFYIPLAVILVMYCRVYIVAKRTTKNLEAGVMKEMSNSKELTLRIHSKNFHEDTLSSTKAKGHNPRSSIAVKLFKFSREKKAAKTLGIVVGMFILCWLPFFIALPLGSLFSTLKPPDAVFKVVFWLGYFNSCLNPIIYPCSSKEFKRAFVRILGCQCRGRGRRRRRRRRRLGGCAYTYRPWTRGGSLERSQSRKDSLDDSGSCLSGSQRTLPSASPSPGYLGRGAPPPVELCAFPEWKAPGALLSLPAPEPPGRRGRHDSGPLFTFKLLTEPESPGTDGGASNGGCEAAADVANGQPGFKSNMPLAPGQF

[6] = target: T3, α2A adrenergic receptor (Homo sapiens, UniProt P08913); assay: PDSP radioligand binding, α2A; conditions: for inhibition at 10 µM: read-out: % inhibition at 10 µM
T3 sequence (P08913 1-465): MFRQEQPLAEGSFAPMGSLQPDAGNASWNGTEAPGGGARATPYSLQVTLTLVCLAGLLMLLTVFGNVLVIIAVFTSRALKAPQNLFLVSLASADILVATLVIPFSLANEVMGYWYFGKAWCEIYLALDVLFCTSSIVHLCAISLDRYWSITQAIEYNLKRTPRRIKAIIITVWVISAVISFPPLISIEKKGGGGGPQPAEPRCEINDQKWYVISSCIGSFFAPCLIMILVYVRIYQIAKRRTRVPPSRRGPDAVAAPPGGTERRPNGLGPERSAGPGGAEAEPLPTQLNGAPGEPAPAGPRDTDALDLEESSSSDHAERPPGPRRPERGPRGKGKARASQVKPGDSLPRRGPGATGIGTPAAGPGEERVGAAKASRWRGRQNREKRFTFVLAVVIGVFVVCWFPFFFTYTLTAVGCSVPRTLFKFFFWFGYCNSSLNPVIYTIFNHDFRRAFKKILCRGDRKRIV

[7] = target: µ opioid receptor (Homo sapiens, UniProt P35372); assay: PDSP radioligand binding, µ opioid; conditions: read-out: % inhibition at 10 µM
Sequence of µ opioid receptor (P35372 whole entry): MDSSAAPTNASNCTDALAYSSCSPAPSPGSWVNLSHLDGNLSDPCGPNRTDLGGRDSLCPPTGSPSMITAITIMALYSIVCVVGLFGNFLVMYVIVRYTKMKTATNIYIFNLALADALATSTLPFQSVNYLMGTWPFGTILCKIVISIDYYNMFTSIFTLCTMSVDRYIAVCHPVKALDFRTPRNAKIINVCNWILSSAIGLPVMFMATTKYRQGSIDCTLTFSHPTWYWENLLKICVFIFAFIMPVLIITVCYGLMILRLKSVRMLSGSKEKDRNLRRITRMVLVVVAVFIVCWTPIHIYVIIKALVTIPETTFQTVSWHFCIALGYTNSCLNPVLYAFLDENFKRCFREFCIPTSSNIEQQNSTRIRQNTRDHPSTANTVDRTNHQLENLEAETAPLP

[8] = target: 5HT1D serotonergic receptor (Homo sapiens, UniProt P28221); assay: PDSP radioligand binding, 5HT1D; conditions: read-out: % inhibition at 10 µM
Sequence of 5HT1D serotonergic receptor (P28221 whole entry): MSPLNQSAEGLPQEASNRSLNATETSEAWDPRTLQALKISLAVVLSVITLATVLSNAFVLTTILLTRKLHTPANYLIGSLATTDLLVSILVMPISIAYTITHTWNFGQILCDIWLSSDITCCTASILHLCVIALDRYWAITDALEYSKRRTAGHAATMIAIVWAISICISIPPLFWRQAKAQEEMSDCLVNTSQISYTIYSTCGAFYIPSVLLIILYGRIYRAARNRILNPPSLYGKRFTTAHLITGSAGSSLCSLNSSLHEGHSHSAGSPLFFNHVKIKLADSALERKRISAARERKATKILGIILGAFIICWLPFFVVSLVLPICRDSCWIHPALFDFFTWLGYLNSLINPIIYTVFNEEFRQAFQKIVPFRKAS

[9] = target: T4, σ2 receptor (Rattus norvegicus, UniProt Q5U3Y7); assay: PDSP radioligand binding, σ2; conditions: for Ki: full curves, n = 2; for inhibition at 10 µM: read-out: % inhibition at 10 µM
T4 sequence (Q5U3Y7 1-176): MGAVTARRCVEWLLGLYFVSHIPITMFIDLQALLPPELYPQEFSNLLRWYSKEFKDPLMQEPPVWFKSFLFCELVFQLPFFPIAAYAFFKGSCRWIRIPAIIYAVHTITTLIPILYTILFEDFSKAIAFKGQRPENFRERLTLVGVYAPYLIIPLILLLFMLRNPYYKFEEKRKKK

[10] = target: T5, D4 dopaminergic receptor (Homo sapiens, UniProt P21917); assay: PDSP radioligand binding, D4; conditions: read-out: % inhibition at 10 µM
T5 sequence (P21917 1-419): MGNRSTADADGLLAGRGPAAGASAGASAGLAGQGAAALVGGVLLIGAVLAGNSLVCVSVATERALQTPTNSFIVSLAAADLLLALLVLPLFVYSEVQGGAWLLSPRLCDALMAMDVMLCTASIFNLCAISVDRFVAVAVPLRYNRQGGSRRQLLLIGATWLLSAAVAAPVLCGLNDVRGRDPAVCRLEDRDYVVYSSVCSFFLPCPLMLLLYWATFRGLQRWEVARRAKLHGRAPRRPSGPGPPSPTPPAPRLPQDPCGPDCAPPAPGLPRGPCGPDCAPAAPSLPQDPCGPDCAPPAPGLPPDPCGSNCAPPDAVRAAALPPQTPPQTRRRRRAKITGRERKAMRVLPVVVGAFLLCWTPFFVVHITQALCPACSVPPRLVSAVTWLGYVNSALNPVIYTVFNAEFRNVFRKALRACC

[11] = target: 5HT1E serotonergic receptor (Homo sapiens, UniProt P28566); assay: PDSP radioligand binding, 5HT1E; conditions: read-out: % inhibition at 10 µM
Sequence of 5HT1E serotonergic receptor (P28566 whole entry): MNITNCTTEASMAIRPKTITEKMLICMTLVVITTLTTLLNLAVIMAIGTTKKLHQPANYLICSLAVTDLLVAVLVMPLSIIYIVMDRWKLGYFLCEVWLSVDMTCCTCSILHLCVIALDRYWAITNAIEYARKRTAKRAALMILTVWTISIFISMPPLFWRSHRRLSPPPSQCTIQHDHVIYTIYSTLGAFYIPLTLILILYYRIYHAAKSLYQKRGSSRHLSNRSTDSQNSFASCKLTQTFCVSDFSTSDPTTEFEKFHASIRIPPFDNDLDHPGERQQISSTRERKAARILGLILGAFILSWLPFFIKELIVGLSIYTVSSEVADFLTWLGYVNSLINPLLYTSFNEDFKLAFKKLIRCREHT

[12] = target: β3 adrenergic receptor (Homo sapiens, UniProt P13945); assay: PDSP radioligand binding, β3; conditions: for Ki: full concentration-response curves, n = 3-6 unless noted; for inhibition at 10 µM: read-out: % inhibition at 10 µM
Sequence of β3 adrenergic receptor (P13945 whole entry): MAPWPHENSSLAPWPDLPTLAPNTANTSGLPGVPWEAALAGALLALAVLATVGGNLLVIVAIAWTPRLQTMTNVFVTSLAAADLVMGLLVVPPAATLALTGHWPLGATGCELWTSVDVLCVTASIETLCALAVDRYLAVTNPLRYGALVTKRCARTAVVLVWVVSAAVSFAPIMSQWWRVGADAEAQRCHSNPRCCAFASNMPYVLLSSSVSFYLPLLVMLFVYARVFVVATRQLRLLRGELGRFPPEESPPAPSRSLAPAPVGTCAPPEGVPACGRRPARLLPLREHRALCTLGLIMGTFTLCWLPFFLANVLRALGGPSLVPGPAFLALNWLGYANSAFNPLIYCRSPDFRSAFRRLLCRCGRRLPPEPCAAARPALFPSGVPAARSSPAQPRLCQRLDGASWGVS

[13] = target: β1 adrenergic receptor (Homo sapiens, UniProt P08588); assay: PDSP radioligand binding, β1; conditions: read-out: % inhibition at 10 µM
Sequence of β1 adrenergic receptor (P08588 whole entry, species assumed): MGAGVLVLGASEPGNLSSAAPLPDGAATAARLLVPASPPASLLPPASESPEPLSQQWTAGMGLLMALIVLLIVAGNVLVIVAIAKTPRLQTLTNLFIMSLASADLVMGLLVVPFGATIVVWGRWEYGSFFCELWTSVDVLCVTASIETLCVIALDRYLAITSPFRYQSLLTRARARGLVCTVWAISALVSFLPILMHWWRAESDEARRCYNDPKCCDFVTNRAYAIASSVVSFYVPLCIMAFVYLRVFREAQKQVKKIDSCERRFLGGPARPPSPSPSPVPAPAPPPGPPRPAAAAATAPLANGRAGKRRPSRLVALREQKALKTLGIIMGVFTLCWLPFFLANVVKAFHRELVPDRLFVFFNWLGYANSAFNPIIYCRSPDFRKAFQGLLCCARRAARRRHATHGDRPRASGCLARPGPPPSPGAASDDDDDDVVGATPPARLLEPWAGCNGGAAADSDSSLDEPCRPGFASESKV

Sequence of β2 adrenergic receptor (P07550 whole entry): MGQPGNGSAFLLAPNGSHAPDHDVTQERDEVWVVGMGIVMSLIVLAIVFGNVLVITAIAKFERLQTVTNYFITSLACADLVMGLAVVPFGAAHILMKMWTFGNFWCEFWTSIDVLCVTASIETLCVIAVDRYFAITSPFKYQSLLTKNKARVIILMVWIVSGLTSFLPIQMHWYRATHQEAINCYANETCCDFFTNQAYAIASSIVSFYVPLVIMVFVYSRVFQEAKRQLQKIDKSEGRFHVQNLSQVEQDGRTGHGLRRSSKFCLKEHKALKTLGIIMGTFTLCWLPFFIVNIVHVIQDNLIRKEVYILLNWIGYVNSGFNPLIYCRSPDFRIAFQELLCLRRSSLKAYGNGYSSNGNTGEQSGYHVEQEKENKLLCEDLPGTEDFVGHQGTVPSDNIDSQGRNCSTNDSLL

Row | SMILES | inhibition at 10 µM ([3]; single concentration 10 µM) | Ki [9] | Ki [12] | inhibition at 10 µM ([1]; single concentration 10 µM) | inhibition at 10 µM ([2]; single concentration 10 µM) | inhibition at 10 µM ([4]; single concentration 10 µM) | inhibition at 10 µM ([5]; single concentration 10 µM) | inhibition at 10 µM ([6]; single concentration 10 µM) | inhibition at 10 µM ([7]; single concentration 10 µM) | inhibition at 10 µM ([8]; single concentration 10 µM) | inhibition at 10 µM ([9]; single concentration 10 µM) | inhibition at 10 µM ([10]; single concentration 10 µM) | inhibition at 10 µM ([11]; single concentration 10 µM) | inhibition at 10 µM ([12]; single concentration 10 µM) | inhibition at 10 µM ([13]; single concentration 10 µM) | further results
1 | CNC(=O)[C@@]12C[C@@H]1[C@@H](n1cnc3c(NCc4cccc(Cl)c4)nc(C#Cc4ccc(F)c(F)c4)nc31)[C@H](O)[C@@H]2O [Compound 1] | 5% | 908 ± 294 nM | 1450 ± 510 nM |  |  |  |  |  |  |  |  |  |  |  |  | inhibition at 10 µM [1]: 0%; inhibition at 10 µM [2]: 9%; inhibition at 10 µM [4]: 13%; inhibition at 10 µM [5]: 44%; Ki ([6]; full concentration-response curves, n = 3-6 unless noted): 4.77 ± 1.43 µM; inhibition at 10 µM [6]: 19%; inhibition at 10 µM [7]: 11%; inhibition at 10 µM [8]: 0%; inhibition at 10 µM [9]: 0%; inhibition at 10 µM [10]: 0%; inhibition at 10 µM [11]: 12%; inhibition at 10 µM [12]: 74%; inhibition at 10 µM [13]: 0%
2 | CNC(=O)[C@@]12C[C@@H]1[C@@H](n1cnc3c(NCc4cccc(Cl)c4)nc(C#Cc4ccccc4Cl)nc31)[C@H](O)[C@@H]2O [Compound 3] | 26% |  | 1170 ± 190 nM | 0% | 0% | 10% | 7% | 22% | 23% | 10% | 42% | 1% | 0% | 57% | 2% | 
3 | O[C@@H]1[C@H](O)[C@@H]2C[C@@H]2[C@H]1n1cnc2c(NCc3cccc(Cl)c3)nc(C#Cc3ccc(F)c(F)c3)nc21 [Compound 6] | 6% | 2940 ± 1500 nM | 2460 ± 130 nM | 0% | 3% | 3% | 19% | 14% | 0% | 12% | 69% | 0% | 0% | 27% | 6% | 
4 | CNC(=O)[C@@]12C[C@@H]1[C@@H](n1cnc3c(NCc4cccc(Cl)c4)nc(Cl)nc31)[C@H](O)[C@@H]2O [Compound 4] | 34% |  |  | 2% | 0% | 4% | 30% | 26% | 1% | 31% | 0% | 6% | 0% | 0% | 0% | 
5 | O[C@@H]1[C@H](O)[C@@H]2C[C@@H]2[C@H]1n1cnc2c(NC(C3CC3)C3CC3)nc(Cl)nc21 [Compound 10] |  |  |  | 2% | 0% | 0% | 8% | 17% | 0% | 18% | 0% | 0% | 3% | 0% | 4% | inhibition at 10 µM [3]: 0%
